23 compounds from patent publication US8178534B2, “cMET inhibitors” (Takeda Pharmaceutical Company Limited, priority 2008, dated 2012) can be followed below.

Structures can show the parent of a compound that is named as a salt. Where only a bound is given, the exact number is not on record here.

By EC50 is commonly meant the concentration giving half of the maximal effect. A high value points to weaker potency. As usually defined, the IC50 is the concentration at which inhibition is half-maximal.

Test [1] relates to MKN45. Briefly: Inhibition of cell viability (MTS), MKN45. The test is classed as cell-based. The settings on record: 96 hours incubation. Summed up: (§1)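 Cells seeded at 2,000-7,500/well, attached ~24 h, then treated in duplicate with 1:2.5 serial dilutions at 0.5% final DMSO. Viability by MTS; EC50 from non-linear fit after background correction and normalisation to DMSO. MKN45 and EBC1 are cMET-dependent; A549 serves as negative control.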

Test [2] deals with T1, cMET enzyme (amino acids 1023-1360) (Homo sapiens, UniProt P08581).
T1 construct: The cMET enzyme (amino acids 1023-1360) nominally at 24 μM was held at −80° C. until use; His tag (N, cleaved yes); made in house; host or cells: Sf9 cells
Put plainly: Determination of inhibition of cMET (capillary electrophoresis, phosphorylated peptide product). The test is classed as biochemical. The settings on record: 1.2 nM cMET, 50 μM ATP, 2 μM FL-2 peptide, 2 hours room temperature.

Test [3] has as its system A549. Briefly: Inhibition of cell viability (MTS), A549 (negative control line). It counts as cell-based. The settings on record: A549 cells (negative control), 96 hours incubation. In a few lines: as §1
The test system of test [4] is EBC1. Briefly: Inhibition of cell viability (MTS), EBC1. The test is classed as cell-based. Particulars: 96 hours incubation. Summed up: as §1
The mark [5] stands for this setting: Homo sapiens, MKN-45, 96 h, MKN45 cells.
Where [6] appears, read: Homo sapiens, EBC-1, 96 h, EBC1 cells.
[7] abbreviates: Homo sapiens, MKN-45, MKN45 cells.
Setting [8] is: Homo sapiens, EBC-1, EBC1 cells.

T1 sequence (P08581 1023-1360): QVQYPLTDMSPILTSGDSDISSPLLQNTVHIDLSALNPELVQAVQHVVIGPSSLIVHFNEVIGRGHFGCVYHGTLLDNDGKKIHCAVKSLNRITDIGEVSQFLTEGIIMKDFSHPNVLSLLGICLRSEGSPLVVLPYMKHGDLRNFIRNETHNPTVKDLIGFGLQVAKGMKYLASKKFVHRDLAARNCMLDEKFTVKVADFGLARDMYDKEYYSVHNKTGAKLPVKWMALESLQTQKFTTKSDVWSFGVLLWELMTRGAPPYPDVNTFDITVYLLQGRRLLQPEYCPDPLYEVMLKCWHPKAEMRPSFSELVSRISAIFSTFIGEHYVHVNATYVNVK

With `N#Cc1ccc(-c2ccc3nnc(C(F)(F)c4ccc5nc(NC(=O)C6CC6)cn5n4)n3c2)cc1` [Compound 83, N-(6-((6-(4-cyanophenyl)-[1,2,4]triazolo[4,3-a]pyridin-3-yl)difluoromethyl)imidazo[1,2-b]pyridazin-2-yl)cyclopropanecarboxamide], the EC50 is less than 30 nM in test [1] (setting [5]); more than 50000 nM in test [3] (Homo sapiens, A549, 96 h); less than 30 nM in test [4] (setting [6]). This compound also gave a half-inhibitory concentration (IC50) in test [2] of less than 30 nM.

For the compound `O=C(Nc1cn2nc(Sc3nnc4ccc(-c5cccc(CCCO)c5)cn34)ccc2n1)C1CC1` [Compound 111, N-(6-(6-(3-(3-hydroxypropyl)phenyl)-[1,2,4]triazolo[4,3-a]pyridin-3-ylthio)imidazo[1,2-b]pyridazin-2-yl)cyclopropanecarboxamide], the half-maximal effective concentration (EC50) was in the range of 100 to 249 nM in test [1] (setting [5]); 8000 to 25000 nM in test [3] (Homo sapiens, A549, 96 h); 30 to 59 nM in test [4] (setting [6]). In test [2], this compound came in with a 50% inhibitory concentration (IC50) of less than 30 nM.

`O=C(Nc1cn2nc(Sc3nnc4ccccn34)ccc2n1)C1CC1` [3 (HCl Salt)]: the EC50 fell in the range of 250 to 630 nM in test [1] (MKN45 cells); 8000 to 25000 nM in test [3] (Homo sapiens, A549, 96 h); 100 to 199 nM in test [4] (setting [6]). In test [2], this compound came in with a half-maximal inhibitory concentration (IC50) of more than 100 nM.

For the compound `COc1ccc(-c2ccc3nnc(C(F)(F)c4ccc5nc(NC(=O)C6CC6)cn5n4)n3c2)cn1` [Compound 86, N-(6-(difluoro(6-(6-methoxypyridin-3-yl)-[1,2,4]triazolo[4,3-a]pyridin-3-yl)methyl)imidazo[1,2-b]pyridazin-2-yl)cyclopropanecarboxamide], the EC50 in test [1] (setting [5]) was less than 30 nM; in test [3] (Homo sapiens, A549, 96 h) it was more than 50000 nM; in test [4] (setting [6]) it was less than 30 nM. The IC50 in test [2] was 30 to 59 nM.

`C=C(C)c1ccc2nnc(Sc3ccc4nc(NC(=O)C5CC5)cn4n3)n2c1` [Compound 25, N-(6-(6-(prop-1-en-2-yl)-[1,2,4]triazolo[4,3-a]pyridin-3-ylthio)imidazo[1,2-b]pyridazin-2-yl)cyclopropanecarboxamide]: the 50% effective concentration (EC50) in test [1] (setting [5]) is less than 100 nM; in test [3] (Homo sapiens, A549, 96 h), 8000 to 25000 nM; in test [4] (setting [6]) it was less than 35 nM. Moreover, the IC50 in test [2] is less than 30 nM.

With `O=C(Nc1cn2nc(Sc3nnc4ccc(C(F)(F)F)cn34)ccc2n1)C1CC1` [Compound 41, N-(6-(6-(trifluoromethyl)-[1,2,4]triazolo[4,3-a]pyridin-3-ylthio)imidazo[1,2-b]pyridazin-2-yl)cyclopropanecarboxamide], the concentration giving a half-maximal response (EC50) in test [1] (setting [5]) lay within 100 to 249 nM; in test [3] (Homo sapiens, A549, 96 h), 8000 to 25000 nM; in test [4] (setting [6]) it was 35 to 99 nM. This compound gave an IC50 in test [2] of 60 to 100 nM.

Consider `O=C(NCCO)Nc1cn2nc(Sc3nnc4ccc(-c5cccc(F)c5)cn34)ccc2n1` [Compound 27, 1-(6-(6-(3-fluorophenyl)-[1,2,4]triazolo[4,3-a]pyridin-3-ylthio)imidazo[1,2-b]pyridazin-2-yl)-3-(2-hydroxyethyl)urea], for which the figures for the EC50 in test [1] (setting [7]), in test [3] (Homo sapiens) and in test [4] (setting [8]) were less than 100 nM, more than 50000 nM and 35 to 99 nM, respectively. Further, in test [2], the 50% inhibitory concentration (IC50) is less than 30 nM.

On to `O=C(Nc1cn2nc(Cn3nnc4ccc(-c5cnn(CCO)c5)cc43)ccc2n1)C1CC1` [Compound 24], for which the half-maximal effective concentration (EC50) in test [1] (setting [5]) was 100 to 249 nM; in test [3] (Homo sapiens, A549, 96 h) it was more than 50000 nM; in test [4] (setting [6]), 35 to 99 nM. In test [2], the IC50 is 60 to 100 nM.

Turning to `N#Cc1cc(-c2ccc3nnc(Sc4ccc5nc(NC(=O)C6CC6)cn5n4)n3c2)ccc1OCCO` [Compound 107, N-(6-(6-(3-cyano-4-(2-hydroxyethoxy)phenyl)-[1,2,4]triazolo[4,3-a]pyridin-3-ylthio)imidazo[1,2-b]pyridazin-2-yl)cyclopropanecarboxamide], the figures for the EC50 in test [1] (setting [7]), in test [3] (Homo sapiens) and in test [4] (setting [8]) were 100 to 249 nM, more than 50000 nM and 60 to 100 nM, respectively. For the same compound, the IC50 in test [2] was less than 30 nM.

As for `CC(c1ccc2nc(NC(=O)C3CC3)cn2n1)c1nnc2ccc(-c3cn[nH]c3)cn12` (centres unmarked) [Compound 64, N-(6-(1-(6-(1H-pyrazol-4-yl)-[1,2,4]triazolo[4,3-a]pyridin-3-yl)ethyl)imidazo[1,2-b]pyridazin-2-yl)cyclopropanecarboxamide], the EC50 was 100 to 249 nM in test [1] (setting [5]); more than 50000 nM in test [3] (Homo sapiens, A549, 96 h); 100 to 249 nM in test [4] (setting [6]). Also, the concentration for half-maximal inhibition (IC50) in test [2] is less than 30 nM.

Turning to `O=C(Nc1cn2nc(Sc3nnc4ccc(-c5cccc(F)c5)cn34)ccc2n1)C1CC1` [Compound 44, N-(6-(6-(3-fluorophenyl)-[1,2,4]triazolo[4,3-a]pyridin-3-ylthio)imidazo[1,2-b]pyridazin-2-yl)cyclopropanecarboxamide], the EC50 in test [1] (setting [5]) was less than 100 nM; in test [3] (Homo sapiens, A549, 96 h), 600 to 1600 nM; in test [4] (setting [6]), less than 35 nM. This compound showed a half-maximal inhibitory concentration (IC50) in test [2] of less than 30 nM.

Take `CC(c1ccc2nc(NC(=O)C3CC3)cn2n1)c1nnc2ccc(-c3cccc(F)c3)cn12` (centres unmarked) [Compound 65, N-(6-(1-(6-(3-fluorophenyl)-[1,2,4]triazolo[4,3-a]pyridin-3-yl)ethyl)imidazo[1,2-b]pyridazin-2-yl)cyclopropanecarboxamide]: the half-maximal effective concentration (EC50) was less than 30 nM in test [1] (setting [5]); more than 50000 nM in test [3] (Homo sapiens, A549, 96 h); less than 30 nM in test [4] (setting [6]). This compound showed a 50% inhibitory concentration (IC50) in test [2] of less than 30 nM.

For the compound `CC(c1ccc2nc(NC(=O)C3CC3)cn2n1)c1nnc2ccc(-c3ccc(C(N)=O)cc3)cn12` (centres unmarked) [Compound 67, 4-(3-(1-(2-(cyclopropanecarboxamido)imidazo[1,2-b]pyridazin-6-yl)ethyl)-[1,2,4]triazolo[4,3-a]pyridin-6-yl)benzamide], the EC50 in test [1] (setting [5]) is 100 to 249 nM; in test [3] (Homo sapiens, A549, 96 h) it was more than 50000 nM; in test [4] (setting [6]), 60 to 100 nM. The same compound showed a 50% inhibitory concentration (IC50) in test [2] of less than 30 nM.

On to `O=C(Nc1cn2nc(Sc3nnc4ccc(-c5csc(N6CCOCC6)n5)cn34)ccc2n1)C1CC1` [Compound 110, N-(6-(6-(2-morpholinothiazol-4-yl)-[1,2,4]triazolo[4,3-a]pyridin-3-ylthio)imidazo[1,2-b]pyridazin-2-yl)cyclopropanecarboxamide], for which the concentration giving a half-maximal response (EC50) in test [1] (setting [5]) was 100 to 249 nM; in test [3] (Homo sapiens, A549, 96 h), more than 50000 nM; in test [4] (setting [6]), 30 to 59 nM. The same compound registered an IC50 in test [2] of 30 to 59 nM.

Turning to `O=C(Nc1cn2nc(Cn3nnc4ccc(-c5cnn(C[C@@H](O)CO)c5)cc43)ccc2n1)C1CC1` [Compound 23], the 50% effective concentration (EC50) is 250 to 630 nM in test [1] (setting [5]); more than 50000 nM in test [3] (Homo sapiens, A549, 96 h); 100 to 199 nM in test [4] (setting [6]). In test [2], this compound had a concentration for half-maximal inhibition (IC50) of 30 to 59 nM.

`O=C(Nc1cn2nc(C(F)(F)c3nnc4ccc(-c5cc(F)cc(F)c5)cn34)ccc2n1)C1CC1` [Compound 81, N-(6-((6-(3,5-difluorophenyl)-[1,2,4]triazolo[4,3-a]pyridin-3-yl)difluoromethyl)imidazo[1,2-b]pyridazin-2-yl)cyclopropanecarboxamide]: the EC50 was less than 30 nM in test [1] (setting [5]); more than 50000 nM in test [3] (Homo sapiens, A549, 96 h); less than 30 nM in test [4] (setting [6]). Moreover, the half-inhibitory concentration (IC50) in test [2] was less than 30 nM.

Take `O=C(Nc1cn2nc(Cn3nnc4ccc(-c5cccc(F)c5)cc43)ccc2n1)C1CC1` [Compound 14]: the concentration for a half-maximal effect (EC50) in test [1] (setting [5]) was 250 to 630 nM; in test [3] (Homo sapiens, A549, 96 h) it was 600 to 1600 nM; in test [4] (setting [6]), 100 to 199 nM. For the same compound, the IC50 in test [2] was 30 to 59 nM.

Take `O=C(Nc1cn2nc(Cn3nnc4ccc(-c5ccccc5)cc43)ccc2n1)C1CC1` [Compound 15]: the EC50 fell in the range of 250 to 630 nM in test [1] (setting [5]); 8000 to 25000 nM in test [3] (Homo sapiens, A549, 96 h); 100 to 199 nM in test [4] (setting [6]). The IC50 in test [2] was 60 to 100 nM.

With `Cc1ccc2nnn(Cc3ccc4nc(NC(=O)C5CC5)cn4n3)c2c1` [Compound 12, N-(6-((6-methyl-1H-benzo[d][1,2,3]triazol-1-yl)methyl)imidazo[1,2-b]pyridazin-2-yl)cyclopropanecarboxamide], the EC50 in test [1] (setting [5]) was more than 630 nM; in test [3] (Homo sapiens, A549, 96 h) it was more than 50000 nM; in test [4] (setting [6]) it was more than 200 nM. Also, in test [2], the half-maximal inhibitory concentration (IC50) is more than 100 nM.

In the case of `COCCn1cc(-c2ccc3nnc(Sc4ccc5nc(NC(=O)C6CC6)cn5n4)n3c2)cn1` [Compound 31, N-(6-(6-(1-(2-methoxyethyl)-1H-pyrazol-4-yl)-[1,2,4]triazolo[4,3-a]pyridin-3-ylthio)imidazo[1,2-b]pyridazin-2-yl)cyclopropanecarboxamide], the EC50 in test [1] (setting [5]) is less than 100 nM; in test [3] (Homo sapiens, A549, 96 h) it was more than 50000 nM; in test [4] (setting [6]) it was less than 35 nM. In test [2], this compound came in with an IC50 of 30 to 59 nM.

For the compound `O=C(Nc1cn2nc(Sc3nnc4ccccn34)ccc2n1)C1CC1` [3 (TFA Salt), N-(6-([1,2,4]triazolo[4,3-a]pyridin-3-ylthio)imidazo[1,2-b]pyridazin-2-yl)cyclopropanecarboxamide], the EC50 in test [1] (MKN45 cells) lay in the range of 250 to 630 nM; in test [3], 8000 to 25000 nM; in test [4] (EBC1 cells), 100 to 199 nM. The same compound displayed an IC50 in test [2] of more than 100 nM.

Take `Cc1ccc2nnc(C(C)c3ccc4nc(NC(=O)C5CC5)cn4n3)n2c1` (centres unmarked) [Compound 53, N-(6-(1-(6-methyl-[1,2,4]triazolo[4,3-a]pyridin-3-yl)ethyl)imidazo[1,2-b]pyridazin-2-yl)cyclopropanecarboxamide]: the EC50 is 250 to 630 nM in test [1] (setting [5]); more than 50000 nM in test [3] (Homo sapiens, A549, 96 h); 250 to 630 nM in test [4] (setting [6]). This compound also came in with a half-inhibitory concentration (IC50) in test [2] of 250 to 630 nM.

With `CC(C)c1ccc2nnc(Sc3ccc4nc(NC(=O)C5CC5)cn4n3)n2c1` [Compound 26, N-(6-(6-isopropyl-[1,2,4]triazolo[4,3-a]pyridin-3-ylthio)imidazo[1,2-b]pyridazin-2-yl)cyclopropanecarboxamide], the EC50 in test [1] (setting [5]) was less than 100 nM; in test [3] (Homo sapiens, A549, 96 h), more than 19500 nM; in test [4] (setting [6]), less than 35 nM. In test [2], this compound had a half-maximal inhibitory concentration (IC50) of less than 30 nM.
